According to patent US5905077A, “Inhibitors of HIV protease useful for the treatment of AIDS” (Eli Lilly and Company, priority 1997, dated 1999):
Values after ≈ are worked out from the molar mass of the structure shown.

target: T1, HIV-1 protease (Human immunodeficiency virus type 1 group M subtype B, UniProt P04585); test: biochemical; assay type: biochemical; settings: not given
T1 construct: Purified HIV-1 protease was obtained as described above; made in house; host or cells: E. coli K12 L507/pHP10D (NRRL B-18560)
Description: E. Fluorescence HIV-1 Protease Inhibitor Assay
The following buffers and solutions are used in the Fluorescence HIV-1 Protease Inhibitor Assay:
To each well of a round bottom, 96-well plate is added 20 μL of the Enzyme Solution followed by 10 μL of the compound to be evaluated in a 20% aqueous dimethylsulfoxide solution. Purified HIV-1 protease was obtained as described above. The resulting solution is incubated for one hour at room temperature and then 20 μL of a solution containing the substrate, prepared above, in MES-ALB buffer (1.5 μl/mL) is added to each well. The solutions are then incubated for 16 hours at room temperature and then each well is diluted with 150 μL of MES-ALB buffer.
To each well of a second round bottom, 96-well Pandex plate is added 25 μL of the Avidin Coated Beads Solution. Then, to each well is added 25 μL of the diluted incubation solutions, prepared above. The solutions are mixed thoroughly and the plates are loaded into a Pandex® machine, washed, evacuated and read. Sample detection was performed by excitation at 485 nm, reading the resulting epifluorescence at 535 nm.

Row | IC50 [nM] | Compound
1 | 0.621 | CC(C)(C)NC(=O)[C@@H]1C[C@@H]2CCCC[C@@H]2CN1C[C@@H](O)[C@H](Cc1ccccc1)NC(=O)[C@@H](C[S+]([O-])c1ccc2ccccc2c1)NS(C)(=O)=O (stereo partly drawn) [Example 42, [2R-(2R*,3R*,6R*,3'S*,4a'S*,8a'S*)]-N(t-Butyl)-2'-[2-hydroxy-3-phenylmethyl-4-aza-5-oxo-6-N(methylsulfonyl)amino-7-naphth-2-ylsulfinyl]heptyl decahydroisoquinoline-3'-carboxamide]
2 | 0.846 | CC(C)(C)NC(=O)[C@@H]1C[C@@H]2CCCC[C@@H]2CN1C[C@@H](O)[C@H](Cc1ccccc1)NC(=O)[C@@H](CS(=O)(=O)c1ccc(F)cc1)NS(C)(=O)=O [Example 39, [2R-(2R*,3R*,6R*,3'S*,4a'S*,8a'S*)]-N(t-Butyl)-2'-[2-hydroxy-3-phenylmethyl-4-aza-5-oxo-6-N(methylsulfonyl)amino-7-p-fluoro-phenylsulfonyl]heptyl decahydroisoquinoline-3'-carboxamide]
3 | 1.23 | CC(C)(C)NC(=O)[C@@H]1CN(Cc2cccnc2)CCN1C[C@@H](O)[C@H](Cc1ccccc1)NC(=O)[C@@H](CS(=O)(=O)c1ccc(F)cc1)NS(C)(=O)=O (relative stereo) [Example 46]
4 | 10.9 | CC(C)(C)NC(=O)[C@@H]1C[C@@H]2CCCC[C@@H]2CN1C[C@@H](O)[C@H](CSc1ccccc1)NC(=O)[C@@H](CS(=O)(=O)c1ccc(F)cc1)NS(C)(=O)=O [Example 47]
5 | 0.635 | CC(C)(C)NC(=O)[C@@H]1C[C@@H]2CCCC[C@@H]2CN1C[C@@H](O)[C@H](Cc1ccccc1)NC(=O)[C@@H](CS(=O)(=O)c1ccc(F)cc1)NS(C)(=O)=O [Example 40, [2R-(2R*,3R*,6R*,3'S*,4a'S*,8a'S*)]-N(t-Butyl)-2'-[2-hydroxy-3-phenylmethyl-4-aza-5-oxo-6-N(methylsulfonyl)amino-7-p-fluoro-phenylsulfonyl]heptyl decahydroisoquinoline-3'-carboxamide]
6 | 5.32 | CC(C)(C)NC(=O)[C@@H]1C[C@@H]2CCCC[C@@H]2CN1C[C@@H](O)[C@H](Cc1ccccc1)NC(=O)[C@@H](CSc1ccc(F)cc1)NS(C)(=O)=O [Example 37, [2R-(2R*,3R*,6R*,3'S*,4a'S*,8a'S*)]-N(t-Butyl)-2'-[2-hydroxy-3-phenylmethyl-4-aza-5-oxo-6-N(methylsulfonyl)amino-7-p-fluoro-phenylthio]heptyl decahydroisoquinoline-3'-carboxamide]
7 | 1.1 | CC(=O)N[C@H](CSCc1ccccc1)C(=O)N[C@@H](Cc1ccccc1)[C@H](O)CN1C[C@H]2CCCC[C@H]2C[C@H]1C(=O)NC(C)(C)C [Example 49, [2R-(2R*,3R*,6R*,3'S*,4a'S*,8a'S*)]-N(t-Butyl)-2'-[2-hydroxy-3-phenylmethyl-4-aza-5-oxo-6-N(ethanoyl)amino-7-phenylmethylthio]heptyl decahydroisoquinoline-3'-carboxamide]
8 | 0.202 | CC(C)(C)NC(=O)[C@@H]1C[C@@H]2CCCC[C@@H]2CN1C[C@@H](O)[C@H](Cc1ccccc1)NC(=O)[C@@H](CS(=O)(=O)c1ccc2ccccc2c1)NS(C)(=O)=O [Example 44, [2R-(2R*,3R*,6R*,3'S*,4a'S*,8a'S*)]-N(t-Butyl)-2'-[2-hydroxy-3-phenylmethyl-4-aza-5-oxo-6-N(methylsulfonyl)amino-7-naphth-2-ylsulfonyl]heptyl decahydroisoquinoline-3'-carboxamide]
9 | 7.76 | CC(C)(C)NC(=O)[C@@H]1C[C@@H]2CCCC[C@@H]2CN1C[C@@H](O)[C@H](Cc1ccccc1)NC(=O)[C@@H](CSc1ccc2ccccc2c1)NS(C)(=O)=O [Example 41, [2R-(2R*,3R*,6R*,3'S*,4a'S*,8a'S*)]-N(t-Butyl)-2'-[2-hydroxy-3-phenylmethyl-4-aza-5-oxo-6-N(methylsulfonyl)amino-7-naphth-2-ylthio]heptyl decahydroisoquinoline-3'-carboxamide]
10 | 0.426 | CC(=O)N[C@H](CS(=O)(=O)c1ccc2ccccc2c1)C(=O)N[C@@H](Cc1ccccc1)[C@H](O)CN1C[C@H]2CCCC[C@H]2C[C@H]1C(=O)NC(C)(C)C [Example 36, [2R-(2R*,3R*,6R*,3'S*,4a'S*,8a'S*)]-N(t-Butyl)-2'-[2-hydroxy-3-phenylmethyl-4-aza-5-oxo-6-N(ethanoyl)amino-7-naphth-2ylsulfonyl]heptyl decahydroisoquinoline-3'-carboxamide]
11 | 0.722 | CC(C)(C)NC(=O)[C@@H]1C[C@@H]2CCCC[C@@H]2CN1C[C@@H](O)[C@H](Cc1ccccc1)NC(=O)[C@@H](C[S+]([O-])c1ccc(F)cc1)NS(C)(=O)=O (stereo partly drawn) [Example 38, [2R-(2R*,3R*,6R*,3'S*,4a'S*,8a'S*)]-N(t-Butyl)-2'-[2-hydroxy-3-phenylmethyl-4-aza-5-oxo-6-N(methylsulfonyl)amino-7-p-fluoro-phenylsulfinyl]heptyl decahydroisoquinoline-3'-carboxamide]

same assay, conditions: pH 5.5

Row | IC50 [nM] | Compound
12 | 1.1 | CC(=O)NC(CSCc1ccccc1)C(=O)NC(Cc1ccccc1)C(O)CN1CC2CCCCC2CC1C(=O)NC(C)(C)C (stereo not drawn) [Example 33, [2R-(2R*,3R*,6R*,3'S*,4a'S*,8a'S*)]-N(t-Butyl)-2'-[2-hydroxy-3-phenylmethyl-4-aza-5-oxo-6-N(ethanoyl)amino-7-phenylmethylthio]heptyl decahydroisoquinoline-3'-carboxamide]

same assay, conditions: read-out: Fluorescence Assay IC65 (65% inhibition at 0.16 ng/mL)

Row | IC65 [ng/mL] | Compound
13 | 0.16 (≈ 0.207 nM) | CC(C)(C)NC(=O)[C@@H]1C[C@@H]2CCCC[C@@H]2CN1C[C@@H](O)[C@H](CSc1ccccc1)NC(=O)[C@@H](CS(=O)(=O)c1ccc2ccccc2c1)NS(C)(=O)=O [Example 48]
